Values quoted from earlier work as cited in patent US20050101653A1, “Combination therapy for the treatment of migraine” (priority 1999, published 2005).

Tested on: carotid vascular resistance
Details: anaesthetized dog

CNS(=O)(=O)Cc1ccc2[nH]cc(CCN(C)C)c2c1 [Sumatriptan, sumatriptan]
effect on carotid vascular resistance: selective increase in carotid vascular resistance
